One test has as its target T1, CB1 receptor (Homo sapiens, UniProt P21554).
T1 construct: host or cells: cell membrane preparations
In words: [3H]CP-55,940 radioligand competition binding, CB1. Particulars: [3H]CP-55,940 displacement; read-out: Ki (CB1). On the technique in general: Loss of bound radioactivity is the signal in a displacement assay; it reports binding, not function.

A further test addresses CB2 receptor (Homo sapiens, UniProt P34972). In words: [3H]CP-55,940 radioligand competition binding, CB2. The following applies: for SI: selectivity index for CB2: Ki(CB1)/Ki(CB2) ratio. The arrangement: host or cells: cell membrane preparations.
The mark [1] stands for this setting: [3H]CP-55,940 displacement, read-out: Ki (CB2).

The term Ki denotes a measure of affinity in units of concentration, obtained from inhibition or displacement.

Like-named read-outs stand apart in the source and are kept apart here.

T1 sequence (P21554 whole entry): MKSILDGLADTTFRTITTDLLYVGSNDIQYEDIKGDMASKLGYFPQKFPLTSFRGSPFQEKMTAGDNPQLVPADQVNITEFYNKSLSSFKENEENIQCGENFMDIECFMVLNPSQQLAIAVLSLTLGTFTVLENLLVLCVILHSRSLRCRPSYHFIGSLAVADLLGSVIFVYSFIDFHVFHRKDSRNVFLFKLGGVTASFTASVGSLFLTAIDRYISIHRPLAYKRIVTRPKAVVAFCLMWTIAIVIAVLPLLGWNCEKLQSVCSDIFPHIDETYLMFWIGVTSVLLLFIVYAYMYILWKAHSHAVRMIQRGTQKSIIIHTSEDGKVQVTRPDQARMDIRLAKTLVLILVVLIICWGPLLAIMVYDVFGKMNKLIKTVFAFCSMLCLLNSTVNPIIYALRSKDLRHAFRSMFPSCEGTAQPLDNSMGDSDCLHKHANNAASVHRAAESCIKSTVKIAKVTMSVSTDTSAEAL
Chain of CB2 receptor (P34972 whole entry): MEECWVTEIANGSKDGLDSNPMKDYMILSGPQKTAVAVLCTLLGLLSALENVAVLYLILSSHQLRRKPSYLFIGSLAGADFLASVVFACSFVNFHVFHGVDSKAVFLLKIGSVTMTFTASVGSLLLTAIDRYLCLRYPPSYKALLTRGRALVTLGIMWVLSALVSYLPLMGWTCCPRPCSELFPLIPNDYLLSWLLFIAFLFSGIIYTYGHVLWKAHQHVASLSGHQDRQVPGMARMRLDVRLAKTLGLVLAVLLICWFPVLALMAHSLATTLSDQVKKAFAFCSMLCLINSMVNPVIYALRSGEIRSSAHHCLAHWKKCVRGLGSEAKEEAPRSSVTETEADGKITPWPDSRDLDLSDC
Description for CB1 receptor: (§1) Briefly, the bioassay is carried out using the Perkin Elmer 96-well Top Counter. […] The procedure is as follows.
(§2) In competition binding experiments, the tested compound dilutions are carried out in duplicate in TME buffer (25 mM Tris, 5 mM MgCl2, 1 mM EDTA) containing 0.1% (w/v) fatty acid free bovine serum albumin (BSA), pH 7.4. […] TME buffer and cell membrane preparations expressing CB receptors (5 μg per well) are added to a final volume of 200 μL. […] After the binding suspensions are incubated at 30° C. for 1 hr, the reaction is terminated by rapid filtration through microfiltration plates (Unifilter GF/B filterplate, PerkinElmer), followed by 5 washes with ice cold TME buffer containing 0.1% BSA on a Packard Filtermate Harvester (PerkinElmer). The plates are then dried overnight and 30 μl MicroScint 0 scintillation cocktail is added to each well of the dried filter plates. The bound radioactivity is then counted using a Perkin Elmer 96-well TopCounter. […] This assay is used for determination of the binding affinity parameters (Ki) of ligand-receptor interactions for the CB receptor.
Description for CB2 receptor: as §1, §2

In the case of `CCN(CC)c1ccc(CN(c2ccc(C)cc2)S(=O)(=O)c2ccccc2)cc1` [Compound 90, N-(4-(Diethylamino)benzyl)-N-(p-tolyl)benzenesulfonamide], the inhibition constant Ki turned out to be 514 nM at CB1 receptor and 3.4 nM on CB2 receptor (setting [1]). Also, the “SI: selectivity index for CB2” value on CB2 receptor was 151.
For `CCN(CC)c1ccc(CN(C(=O)Cc2ccccc2)c2ccc(C)cc2)cc1` [Compound 97, N-(4-(Diethylamino)benzyl)-2-phenyl-N-(p-tolyl)acetamide], in that order: more than 20000 nM, 72 nM and more than 277.
For `CCN(CC)c1ccc(CN(c2ccc(C)cc2)S(=O)(=O)c2ccc(C(C)C)cc2)cc1` [Compound 96, N-(4-(Diethylamino)benzyl)-4-isopropyl-N-(p-tolyl)benzenesulfonamide], in that order: 3360 nM, 4.3 nM and 782.
With `CCN(CC)c1ccc(CN(C23CC4CC(CC(C4)C2)C3)S(=O)(=O)c2ccc(F)cc2)cc1` [Compound 57, N-((3s,5s,7s)-Adamantan-1-yl)-N-(4-(diethylamino)benzyl)-4-fluorobenzenesulfonamide], the figures for the Ki at CB1 receptor and on CB2 receptor were 4270 nM and 25 nM, respectively.
With `CCN(CC)c1ccc(CN(C(=O)C2CCCCC2)C23CC4CC(CC(C4)C2)C3)cc1` [Compound 63, N-((3s,5s,7s)-Adamantan-1-yl)-N-(4-(diethylamino)benzyl)cyclohexanecarboxamide], the figures for the Ki at CB1 receptor and at CB2 receptor were more than 20000 nM and 35 nM, respectively. In addition, the “SI: selectivity index for CB2” value at CB2 receptor is more than 571.
For `O=C(Cc1ccccc1)NC(Cc1ccccc1)NC(=O)Cc1ccccc1` [Compound 44, N,N′-(2-Phenylethane-1,1-diyl)bis(2-phenylacetamide)], the Ki on CB1 receptor is more than 20000 nM.
For `Cc1ccc(C(NC(=O)Cc2ccccc2)NC(=O)Cc2ccccc2)cc1` [Compound 8, N,N′-(p-tolylmethylene)bis(2-phenylacetamide)], the Ki is 109 nM at CB1 receptor and 494 nM at CB2 receptor (setting [1]).
As to `CCN(CC)c1ccc(CN(c2ccc(C)cc2)S(=O)(=O)c2ccc(F)cc2)cc1` [Compound 91, N-(4-(Diethylamino)benzyl)-4-fluoro-N-(p-tolyl)benzenesulfonamide], the Ki stood at 858 nM on CB1 receptor and 5.6 nM on CB2 receptor (setting [1]). For the same molecule, at CB2 receptor, the “SI: selectivity index for CB2” value turned out to be 153.
Take `CCN(CC)c1ccc(C(NC(=O)C(C)(C)C)NC(=O)C(C)(C)C)cc1` [Compound 51, N,N′-((4-(diethylamino)phenyl)methylene)bis(2,2-dimethylpropanamide)]: the Ki was more than 20000 nM on CB1 receptor and 3550 nM at CB2 receptor (setting [1]).
For `CCN(CC)c1ccc(CN(C(=O)Cc2ccc(Cl)cc2)c2ccc(C)cc2)cc1` [Compound 98, 2-(4-Chlorophenyl)-N-(4-(diethylamino)benzyl)-N-(p-tolyl)acetamide], the Ki on CB1 receptor came to 3200 nM; on CB2 receptor (setting [1]), 107 nM. In addition, the “SI: selectivity index for CB2” value on CB2 receptor was determined as 29.
As for `CCN(CC)c1ccc(CN(c2ccc(Cl)cc2)S(=O)(=O)c2ccccc2)cc1` [Compound 81, N-(4-Chlorophenyl)-N-(4-(diethylamino)benzyl)benzenesulfonamide], the Ki at CB1 receptor was found to be 1770 nM.
`CCN(CC)c1ccc(CN(C23CC4CC(CC(C4)C2)C3)S(=O)(=O)c2ccc(C)cc2)cc1` [Compound 60, N-((3s,5s,7s)-Adamantan-1-yl)-N-(4-(diethylamino)benzyl)-4-methylbenzenesulfonamide]: the Ki on CB1 receptor was more than 20000 nM.
`CCN(CC)c1ccc(CN(c2ccc(Cl)cc2)S(=O)(=O)c2ccc(Cl)cc2)cc1` [Compound 83, 4-Chloro-N-(4-chlorophenyl)-N-(4-(diethylamino)benzyl)benzenesulfonamide]: the Ki on CB1 receptor is 6620 nM; at CB2 receptor (setting [1]) it was 36 nM. Moreover, the “SI: selectivity index for CB2” value on CB2 receptor worked out at 183.
On to `CCN(CC)c1ccc(C(NC(=O)C(C)C)NC(=O)C(C)C)cc1` [Compound 50, N,N′-((4-(diethylamino)phenyl)methylene)bis(2-methylpropanamide)], for which the inhibition constant (Ki) on CB1 receptor was more than 20000 nM; on CB2 receptor (setting [1]), 2640 nM.
For `CCN(CC)c1ccc(CN(c2ccc(C)cc2)S(=O)(=O)c2ccc(Cl)cc2)cc1` [Compound 92, 4-Chloro-N-(4-(diethylamino)benzyl)-N-(p-tolyl)benzenesulfonamide], in that order: 412 nM and 3 nM.
For `CCN(CC)c1ccc(CN(C(=O)Cc2ccccc2)C23CC4CC(CC(C4)C2)C3)cc1` [Compound 66, N-((3s,5s,7s)-Adamantan-1-yl)-N-(4-(diethylamino)benzyl)-2-phenylacetamide], the inhibition constant Ki at CB1 receptor was more than 20000 nM; on CB2 receptor (setting [1]), 60 nM. Also, the “SI: selectivity index for CB2” value at CB2 receptor is more than 333.
Consider `CCN(CC)c1ccc(CN(C(=O)Cc2ccc(Cl)cc2)C23CC4CC(CC(C4)C2)C3)cc1` [Compound 65, N-((3s,5s,7s)-Adamantan-1-yl)-2-(4-chlorophenyl)-N-(4-(diethylamino)benzyl)acetamide], for which the Ki at CB1 receptor was more than 20000 nM.
Turning to `CCN(CC)c1ccc(CN(c2ccc(C)cc2)S(=O)(=O)c2cccc(C)c2)cc1` [Compound 95, N-(4-(Diethylamino)benzyl)-3-methyl-N-(p-tolyl)benzenesulfonamide], the Ki at CB1 receptor is 218 nM; at CB2 receptor (setting [1]), 5.8 nM. Moreover, the “SI: selectivity index for CB2” value at CB2 receptor is listed as 37.
For `CCN(CC)c1ccc(CN(C(=O)Cc2ccc(Cl)cc2)c2ccc(Cl)cc2)cc1` [Compound 88, N,2-bis(4-Chlorophenyl)-N-(4-(diethylamino)benzyl)acetamide], in that order: more than 20000 nM, 136 nM and 147.
For the molecule `CCN(CC)c1ccc(CN(c2ccc(Cl)cc2)S(=O)(=O)c2cccc(C)c2)cc1` [Compound 86, N-(4-Chlorophenyl)-N-(4-(diethylamino)benzyl)-3-methylbenzenesulfonamide], the Ki on CB1 receptor turned out to be 866 nM; at CB2 receptor (setting [1]), 2.8 nM.
Take `O=C(Cc1ccccc1)NC(/C=C/c1ccccc1)NC(=O)Cc1ccccc1` [Compound 46, (E)-N,N′-(3-Phenylprop-2-ene-1,1-diyl)bis(2-phenylacetamide)]: at CB1 receptor, the Ki is more than 20000 nM.
With `CCN(CC)c1ccc(CN(C(=O)C2CCCCC2)c2ccc(Cl)cc2)cc1` [Compound 89, N-(4-Chlorophenyl)-N-(4-(diethylamino)benzyl)cyclohexanecarboxamide], the figures for the Ki on CB1 receptor and on CB2 receptor (setting [1]) were more than 20000 nM and 164 nM, respectively. Moreover, on CB2 receptor, the “SI: selectivity index for CB2” value stood at 121.
As for `CCCCC(NC(=O)Cc1ccccc1)NC(=O)Cc1ccccc1` [Compound 40, N,N′-(pentane-1,1-diyl)bis(2-phenylacetamide)], on CB2 receptor (setting [1]), the Ki was 36000 nM.
Take `CCCCCCCC(=O)NC(NC(=O)CCCCCCC)c1ccc(N(CC)CC)cc1` [Compound 54, N,N′-((4-(diethylamino)phenyl)methylene)dioctanamide]: on CB2 receptor, the “SI: selectivity index for CB2” value is on record as more than 136. Also, the Ki on CB2 receptor (setting [1]) stood at 146 nM.
For `Cc1ccc(C(NC(=O)Cc2ccc(Cl)cc2)NC(=O)Cc2ccc(Cl)cc2)cc1` [Compound 25, N,N′-(p-tolylmethylene)bis(2-(4-chlorophenyl)acetamide)], in that order: more than 43 and 462 nM.
For `CCN(CC)c1ccc(C(NC(=O)c2ccccc2)NC(=O)c2ccccc2)cc1` [Compound 49, N,N′-((4-(Diethylamino)phenyl)methylene)dibenzamide], in that order: more than 29 and 688 nM.
On to `O=C(Cc1ccccc1)NC(NC(=O)Cc1ccccc1)c1ccc(Cl)cc1` [Compound 6, N,N′-((4-chlorophenyl)methylene)bis(2-phenylacetamide)], for which the Ki on CB2 receptor (setting [1]) was 3080 nM.
The same measure, in the same setting: to `O=C(Cc1ccc(Cl)cc1)NC(NC(=O)Cc1ccc(Cl)cc1)c1ccc([N+](=O)[O-])cc1` [Compound 29, N,N′-((4-nitrophenyl)methylene)bis(2-(4-chlorophenyl)acetamide)] belongs more than 20000 nM.
As for `CCCCC(=O)NC(NC(=O)CCCC)c1ccc(N(CC)CC)cc1` [Compound 52, N,N′-((4-(diethylamino)phenyl)methylene)dipentanamide], the “SI: selectivity index for CB2” value at CB2 receptor is listed as more than 109. Further, the Ki at CB2 receptor (setting [1]) stood at 182 nM.
For `CCCCCC(=O)NC(NC(=O)CCCCC)c1ccc(N(CC)CC)cc1` [Compound 53, N,N′-((4-(diethylamino)phenyl)methylene)dihexanamide], in that order: more than 800 and 25 nM.
As to `O=C(Cc1ccccc1)NC(NC(=O)Cc1ccccc1)c1ccccc1C(F)(F)F` [Compound 13, N,N′-((2-(trifluoromethyl)phenyl)methylene)bis(2-phenylacetamide)], the Ki at CB2 receptor (setting [1]) came to 11800 nM.
Still for that read-out and setting: to `O=C(Cc1ccccc1)NC(NC(=O)Cc1ccccc1)c1ccc(Br)cc1` [Compound 7, N,N′-((4-bromophenyl)methylene)bis(2-phenylacetamide)] belongs 2230 nM; to `O=C(Cc1ccc(C(F)(F)F)cc1)NC(NC(=O)Cc1ccc(C(F)(F)F)cc1)c1ccc(Cl)cc1` [Compound 33, N,N′-((4-chlorophenyl)methylene)bis(2-(4-(trifluoromethyl)phenyl)acetamide)], more than 20000 nM; to `O=C(Cc1ccc(C(F)(F)F)cc1)NC(NC(=O)Cc1ccc(C(F)(F)F)cc1)c1ccc(C(F)(F)F)cc1` [Compound 36], more than 20000 nM.
On the same count and under the same terms, to `O=C(Cc1ccccc1)NC(Cc1ccccc1)NC(=O)Cc1ccccc1` [Compound 37, N,N′-(2-phenylethane-1,1-diyl)bis(2-phenylacetamide)] belongs more than 20000 nM.
As to `CCN(CC)c1ccc(CNC23CC4CC(CC(C4)C2)C3)cc1` [B, (3s,5s,7s)-N-(4-(Diethylamino)benzyl)adamantan-1-amine], the “SI: selectivity index for CB2” value on CB2 receptor came out at 130. Besides, the Ki at CB2 receptor (setting [1]) turned out to be 20000 nM.
For the molecule `CCCCCCCN(Cc1ccc(N(CC)CC)cc1)C(=O)Cc1ccc(Cl)cc1` [Compound 77, 2-(4-Chlorophenyl)-N-(4-(diethylamino)benzyl)-N-heptylacetamide], the Ki at CB2 receptor (setting [1]) was found to be 696 nM.
